In the supplement of paper PMC10307832:

Tests used:
Experiment in all cases: relative viability (nuclei count vs DMSO), 5 days (fraction); higher = more cells survive
Etoposide + Trametinib = compound: COc1cc([C@@H]2c3cc4c(cc3[C@@H](O[C@@H]3O[C@@H]5CO[C@@H](C)O[C@H]5[C@H](O)[C@H]3O)[C@H]3COC(=O)[C@H]23)OCO4)cc(OC)c1O [Etoposide] + CC(=O)Nc1cccc(-n2c(=O)n(C3CC3)c(=O)c3c(Nc4ccc(I)cc4F)n(C)c(=O)c(C)c32)c1 [Trametinib] (partner 0.02 µM)
In short: (§1)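 A single step with final 0.05% Triton X-100, 1% formaldehyde and 1 ug/ml Hoechst fixed the cells and stained nuclei 5 days after treatment. Lung cancer cell lines in 1536-well plates had been treated by pin tool the day after seeding with one drug alone or a fixed anchor-drug dose plus five library-drug doses (not always all listed) in √10 steps, and nuclei were counted on 4× images. Relative viability is the ratio of nuclei in treated wells to nuclei in vehicle wells, taken as the median of duplicate plates.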

Etoposide + Decitabine = compound: COc1cc([C@@H]2c3cc4c(cc3[C@@H](O[C@@H]3O[C@@H]5CO[C@@H](C)O[C@H]5[C@H](O)[C@H]3O)[C@H]3COC(=O)[C@H]23)OCO4)cc(OC)c1O [Etoposide] + Nc1ncn([C@H]2C[C@H](O)[C@@H](CO)O2)c(=O)n1 [Decitabine] (partner 2 µM)
In short: as §1

Bleomycin + Luminespib = compound: CC1=C(N=C(N=C1N)[C@H](CC(=O)N)NC[C@@H](C(=O)N)N)C(=O)N[C@@H]([C@H](C2=CN=CN2)OC3C(C(C(C(O3)CO)O)O)OC4C(C(C(C(O4)CO)O)OC(=O)N)O)C(=O)N[C@H](C)[C@H]([C@H](C)C(=O)N[C@@H]([C@@H](C)O)C(=O)NCCC5=NC(=CS5)C6=NC(=CS6)C(=O)NCCC[S+](C)C)O [Bleomycin] + CCNC(=O)c1noc(-c2cc(C(C)C)c(O)cc2O)c1-c1ccc(CN2CCOCC2)cc1 [Luminespib] (partner 0.01 µM); details: main component drawn
In short: as §1

Etoposide + Linsitinib = compound: COc1cc([C@@H]2c3cc4c(cc3[C@@H](O[C@@H]3O[C@@H]5CO[C@@H](C)O[C@H]5[C@H](O)[C@H]3O)[C@H]3COC(=O)[C@H]23)OCO4)cc(OC)c1O [Etoposide] + C[C@]1(O)C[C@@H](c2nc(-c3ccc4ccc(-c5ccccc5)nc4c3)c3c(N)nccn32)C1 [Linsitinib] (partner 1 µM)
In short: as §1

Cell Line | relative viability (Etoposide + Trametinib; first compound 0.01 µM) | relative viability (Etoposide + Trametinib; first compound 0.03162 µM) | relative viability (Etoposide + Trametinib; first compound 0.1 µM) | relative viability (Etoposide + Trametinib; first compound 0.3162 µM) | relative viability (Etoposide + Trametinib; first compound 1 µM) | relative viability (Etoposide + Decitabine; first compound 0.01 µM) | relative viability (Etoposide + Decitabine; first compound 0.03162 µM) | relative viability (Etoposide + Decitabine; first compound 0.1 µM) | relative viability (Etoposide + Decitabine; first compound 0.3162 µM) | relative viability (Etoposide + Decitabine; first compound 1 µM) | relative viability (Bleomycin + Luminespib; first compound 0.01 µM) | relative viability (Bleomycin + Luminespib; first compound 0.03162 µM) | relative viability (Bleomycin + Luminespib; first compound 0.1 µM) | relative viability (Bleomycin + Luminespib; first compound 0.3162 µM) | relative viability (Bleomycin + Luminespib; first compound 1 µM) | relative viability (Etoposide + Linsitinib; first compound 0.01 µM) | relative viability (Etoposide + Linsitinib; first compound 0.03162 µM) | relative viability (Etoposide + Linsitinib; first compound 0.1 µM) | relative viability (Etoposide + Linsitinib; first compound 0.3162 µM) | relative viability (Etoposide + Linsitinib; first compound 1 µM)
201T | 0.73 | 0.76 | 0.707 | 0.602 | 0.544 | 0.835 | 0.886 | 0.758 | 0.641 | 0.384 | 1.06 | 0.984 | 0.936 | 0.667 | 0.656 | 1.12 | 1.04 | 0.899 | 1 | 0.745
A549 |  |  |  |  |  | 0.24 | 0.326 | 0.195 | 0.114 | 0.0774 |  |  |  |  |  | 0.41 | 0.584 | 0.225 | 0.262 | 0.0891
A-427 | 0.695 | 0.812 | 0.621 | 0.47 | 0.296 | 0.54 | 0.549 | 0.477 | 0.354 | 0.275 | 0.747 | 0.775 | 0.753 | 0.256 | 0.158 | 1.17 | 1.16 | 0.815 | 0.841 | 0.243
ABC-1 |  |  |  |  |  | 1.08 | 0.939 | 0.62 | 0.619 | 0.52 | 0.578 | 0.737 | 0.561 | 0.198 | 0.225 | 0.753 | 0.894 | 0.879 | 0.418 | 0.308
BEN | 0.919 | 1.01 |  | 1.05 | 0.852 | 0.742 | 0.769 |  | 0.692 | 0.476 | 0.327 | 0.329 | 0.342 | 0.332 | 0.2 | 0.695 | 0.983 |  | 0.78 | 0.681
CAL-12T | 0.238 | 0.43 | 0.241 | 0.367 | 0.211 |  |  |  |  |  | 0.493 | 0.555 | 0.233 | 0.173 | 0.143 | 0.791 | 0.849 | 0.619 | 0.597 | 0.181
COR-L23 | 0.578 | 0.666 | 0.348 | 0.488 | 0.233 | 0.407 | 0.471 | 0.337 | 0.377 | 0.176 | 0.501 | 0.352 | 0.258 | 0.122 | 0.122 | 0.818 | 0.841 | 0.942 | 0.578 | 0.237
COR-L 105 | 0.443 | 0.479 | 0.439 | 0.437 | 0.398 | 0.616 | 0.613 | 0.567 | 0.605 | 0.569 | 0.665 | 0.743 | 0.562 | 0.555 | 0.386 | 0.874 | 0.958 | 1.02 | 0.769 | 0.713
Calu-6 |  |  |  |  |  |  |  |  |  |  |  |  |  |  |  | 0.914 | 1.01 | 0.819 | 0.758 | 0.39
ChaGo-K-1 | 0.881 | 0.905 | 0.752 | 0.394 | 0.248 | 0.448 | 0.546 | 0.397 | 0.291 | 0.229 | 0.505 | 0.476 | 0.502 | 0.293 | 0.205 |  |  |  |  | 
EBC-1 |  |  |  |  |  |  |  |  |  |  |  |  |  |  |  | 0.903 | 0.942 | 0.349 | 0.788 | 0.466
EKVX | 0.287 | 0.382 | 0.303 | 0.295 | 0.169 | 0.281 | 0.351 | 0.282 | 0.31 | 0.229 | 0.79 | 0.824 | 0.804 | 0.357 | 0.264 | 0.979 | 0.978 | 0.805 | 0.712 | 0.399
EMC-BAC-2 | 0.818 | 0.774 | 0.531 | 0.364 | 0.308 | 0.938 | 0.893 | 0.606 | 0.323 | 0.298 | 0.997 | 0.832 | 0.8 | 0.348 | 0.244 | 0.719 | 0.803 | 0.58 | 0.273 | 0.186
EPLC-272H | 0.33 | 0.284 | 0.254 | 0.267 | 0.267 | 0.339 | 0.412 | 0.338 | 0.328 | 0.297 | 0.361 | 0.23 | 0.203 | 0.145 | 0.133 | 1.29 | 1.12 | 0.693 | 1.14 | 0.504
H3255 | 0.578 | 0.707 | 0.411 | 0.57 | 0.347 | 0.547 | 0.94 | 0.417 | 0.474 | 0.318 | 0.817 | 0.878 | 0.652 | 0.52 | 0.351 | 0.872 | 1.11 | 0.815 | 0.713 | 0.336
HARA | 0.628 | 0.638 | 1.01 | 0.592 | 0.353 | 0.556 | 0.578 | 0.573 | 0.399 | 0.301 | 0.682 | 0.751 | 0.705 | 0.442 | 0.543 | 0.892 | 1.15 | 1.04 | 0.738 | 0.182
HCC-15 | 0.35 | 0.469 | 0.34 | 0.287 | 0.192 | 0.667 | 0.665 | 0.668 | 0.286 | 0.174 | 0.183 | 0.231 | 0.203 | 0.164 | 0.144 | 0.892 | 0.903 | 0.755 | 0.396 | 0.16
